test system: Green Peach Aphid (Myzus persicae); assay: Insecticidal test for green peach aphid in foliar spray assay on cabbage; assay type: in vivo; conditions: 72 h, 200 ppm foliar spray on cabbage seedlings, graded after 3 d, corrected % control (Abbott), read-out: Rating against green peach aphid on cabbage (foliar spray)
Method: Compounds 1-67 were tested against green peach aphid using procedures described hereinafter.
Insecticidal Test for Green Peach Aphid (Myzus persicae) in Foliar Spray Assay
Cabbage seedlings grown in 3-inch pots, with 2-3 small (3-5 cm) true leaves, were used as test substrate. The seedlings were infested with 20-50 green peach aphids (wingless adult and nymph) 1-2 d prior to chemical application. Four seedlings were used for each treatment. Compounds (2 mg) were dissolved in 2 mL of acetone-methanol (1:1) solvent, forming stock solutions of 1000 ppm. The stock solutions were diluted 5× with 0.025% Tween 20 in H2O to obtain a solution at 200 ppm. A hand-held Devilbiss aspirator sprayer was used for spraying a solution to both sides of cabbage leaves until runoff. Reference plants (solvent check) were sprayed with the diluent only. Treated plants were held in a holding room for 3 d at approximately 23° C. and 40% RH prior to grading. Evaluation was conducted by counting the number of live aphids per plant under a microscope. Insecticidal activity was measured by using Abbott's correction formula: Corrected % Control=100*(X−Y)/X • where X=No. of live aphids on solvent check plants • Y=No. of live aphids on treated plants

With CC(c1ccc(C(F)(F)F)nc1)S(C)(=O)=NC(=O)NC(=O)CCl (stereo not shown) [Compound 3, N-(chloroacetyl)-N′-(methyl(oxido){1-[6-(trifluoromethyl)pyridin-3-yl]ethyl}-λ^4-sulfanylidene)urea] as the compound, how does the pest or weed control at 200 ppm read?
Its pest or weed control at 200 ppm is 80 to 100%.

With CC(c1ccc(C(F)(F)F)nc1)S(C)(=O)=NC(=S)Nc1cccnc1 (stereo not shown) [Compound 4, N-(methyl(oxido){1-[6-(trifluoromethyl)pyridin-3-yl]ethyl}-λ^4-sulfanylidene)-N′-pyridin-3-ylthiourea] as the compound, how does the pest or weed control at 200 ppm read?
The pest or weed control at 200 ppm was under 80%.

With CCNC(=S)N=S(C)(=O)C(C)c1ccc(C(F)(F)F)nc1 (stereo not shown) [Compound 6] as the compound, how does the pest or weed control at 200 ppm read?
Its pest or weed control at 200 ppm is 80 to 100%.

How did the pest or weed control at 200 ppm turn out when CC(c1ccc(C(F)(F)F)nc1)S(C)(=O)=NC(=S)NCc1ccco1 (stereo not shown) [Compound 8] was run?
Its pest or weed control at 200 ppm is 80 to 100%.

COC(=O)C(C)NC(=S)N=S(C)(=O)C(C)c1ccc(C(F)(F)F)nc1 (stereo not shown) [Compound 10] was tested. Which pest or weed control at 200 ppm did it give?
The pest or weed control at 200 ppm was 80 to 100%.

Which pest or weed control at 200 ppm does the source give for CC(c1ccc(C(F)(F)F)nc1)S(C)(=O)=NC(=S)NCCN1CCOCC1 (stereo not shown) [Compound 11] here?
Its pest or weed control at 200 ppm is 80 to 100%.

For CCOC(=O)CNC(=S)N=S(C)(=O)C(C)c1ccc(C(F)(F)F)nc1 (stereo not shown) [Compound 12], which pest or weed control at 200 ppm is on record?
The pest or weed control at 200 ppm was 80 to 100%.

With CNC(=S)N=S(C)(=O)C(C)c1ccc(C(F)(F)F)nc1 (stereo not shown) [Compound 13] as the compound, how does the pest or weed control at 200 ppm read?
Its pest or weed control at 200 ppm is 80 to 100%.

For CC(c1ccc(C(F)(F)F)nc1)S(C)(=O)=NC(=S)NC(=O)c1ccc(Cl)cc1 (stereo not shown) [Compound 16], which pest or weed control at 200 ppm is on record?
Its pest or weed control at 200 ppm is 80 to 100%.

COc1ccc(C(=O)NC(=S)N=S(C)(=O)C(C)c2ccc(C(F)(F)F)nc2)cc1 (stereo not shown) [Compound 17] was tested. Which pest or weed control at 200 ppm did it give?
The pest or weed control at 200 ppm was 80 to 100%.

With CC(c1ccc(C(F)(F)F)nc1)S(C)(=O)=NC(=S)NC(=O)c1ccco1 (stereo not shown) [Compound 18] as the compound, how does the pest or weed control at 200 ppm read?
The pest or weed control at 200 ppm was 80 to 100%.

How did the pest or weed control at 200 ppm turn out when CC(c1ccc(C(F)(F)F)nc1)S(C)(=O)=NC(=S)N(C)C (stereo not shown) [Compound 23, N,N-dimethyl-N′-(methyl(oxido){1-[6-(trifluoromethyl)pyridin-3-yl]ethyl}-λ^4-sulfanylidene)thiourea] was run?
The pest or weed control at 200 ppm was 80 to 100%.

Which pest or weed control at 200 ppm does the source give for CCN(CC)C(=S)N=S(C)(=O)C(C)c1ccc(C(F)(F)F)nc1 (stereo not shown) [Compound 24] here?
The pest or weed control at 200 ppm was 80 to 100%.

How did the pest or weed control at 200 ppm turn out when CC(c1ccc(C(F)(F)F)nc1)S(C)(=O)=NC(=S)N1CCCC1 (stereo not shown) [Compound 25] was run?
Its pest or weed control at 200 ppm is 80 to 100%.

For CC(c1ccc(C(F)(F)F)nc1)S(C)(=O)=NC(=S)N1CCCCC1 (stereo not shown) [Compound 26], which pest or weed control at 200 ppm is on record?
The pest or weed control at 200 ppm was 80 to 100%.

How did the pest or weed control at 200 ppm turn out when CC(c1ccc(C(F)(F)F)nc1)S(C)(=O)=NC(=S)N1CCOCC1 (stereo not shown) [Compound 27] was run?
The pest or weed control at 200 ppm was 80 to 100%.

With CS(=O)(Cc1ccc(C(F)(F)F)nc1)=NC(N)=S (stereo not shown) [Compound 29, N-(methyl(oxido){[6-(trifluoromethyl)pyridin-3-yl]methyl}-λ^4-sulfanylidene)thiourea] as the compound, how does the pest or weed control at 200 ppm read?
The pest or weed control at 200 ppm was 80 to 100%.

For CS(=O)(=N/C(N)=N/O)C(CC1CC1)c1ccc(Cl)nc1 (stereo not shown) [Compound 40, N-[[1-(6-chloropyridin-3-yl)-2-cyclopropylethyl](methyl)oxido-λ^4-sulfanylidene]-N″-hydroxyguanidine], which pest or weed control at 200 ppm is on record?
The pest or weed control at 200 ppm was under 80%.

For CS(=O)(=N/C(N)=N/O)C(C/C=C/Cl)c1ccc(Cl)nc1 (stereo not shown) [Compound 41, N-[[(3E)-4-Chloro-1-(6-chloropyridin-3-yl)but-3-enyl](methyl)oxido-λ^4-sulfanylidene]-N″-hydroxyguanidine], which pest or weed control at 200 ppm is on record?
Its pest or weed control at 200 ppm is under 80%.

With CS(=O)(Cc1ccc(C(F)(F)F)nc1)=N/C(N)=N/O (stereo not shown) [Compound 42, N′-hydroxy-N-(methyl(oxido){[6-(trifluoromethyl)pyridin-3-yl]methyl}-λ^4-sulfanylidene)guanidine] as the compound, how does the pest or weed control at 200 ppm read?
Its pest or weed control at 200 ppm is 80 to 100%.

same assay, conditions: foliar, 72 h, read-out: Rating against green peach aphid on cabbage (foliar spray)

How did the pest or weed control at 200 ppm turn out when CCOC(=O)NC(=S)N=S(C)(=O)C(C)c1ccc(C(F)(F)F)nc1 (stereo not shown) [Compound 19] was run?
Its pest or weed control at 200 ppm is 80 to 100%.

Which pest or weed control at 200 ppm does the source give for Cc1ccc(C(C)S(C)(=O)=NC(=S)NC(=O)OCC2c3ccccc3-c3ccccc32)cn1 (stereo not shown) [Compound 32, 9H-fluoren-9-ylmethyl({methyl[1-(6-methylpyridin-3-yl)ethyl]oxido-λ^4-sulfanylidene}amino)carbonothioylcarbamate] here?
The pest or weed control at 200 ppm was under 80%.

Reference: patent publication US8445689B2, “Pesticides” (Dow AgroSciences, LLC., priority 2008, dated 2013)
